Measurements from the supplement of paper PMC9013687.

Assays:
Danio rerio embryo [1] = test: EC50 Yolk sac size_Increase; details: exposure time: 4 dpf
Description: (§1)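 Zebrafish embryos (UFZ-OBI strain) were exposed from 2 hpf for 48 h (2 dpf) or 96 h (4 dpf) at 28 °C; spontaneous tail coiling was scored at 25 hpf. Morphological features from automated image analysis (FishInspector), heart rate and locomotor response were fitted with drc models. Quantal endpoints were dichotomised at 2.5 SD from controls and fitted with a log-logistic model; heart rate, pigmentation and STC were normalised to the replicate control mean. Betamethasone was tested as betamethasone dipropionate, diflorasone as diflorasone diacetate.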

Danio rerio embryo [2] = test: EC10 Otolith-eye distance_Decrease; higher = less potent; details: exposure time: 4 dpf
Description: as §1

Danio rerio embryo [3] = test: EC20 Eye size_Decrease; higher = less potent; details: exposure time: 4 dpf
Description: as §1

Danio rerio embryo [4] = test: EC50 Body length_Decrease
Description: as §1

Danio rerio embryo [5] = test: EC10 Curvature_Increase; higher = less potent
Description: as §1

Danio rerio embryo [6] = test: EC50 Curvature_Increase
Description: as §1

Danio rerio embryo [7] = test: EC10 Pericard size_Increase; higher = less potent
Description: as §1

Danio rerio embryo [8] = test: EC20 Eye-jaw distance_Decrease; higher = less potent; details: exposure time: 4 dpf
Description: as §1

Danio rerio embryo [9] = system: Danio rerio embryo
Description: as §1

Danio rerio embryo [10] = test: EC50 Eye-jaw distance_Decrease; details: exposure time: 4 dpf
Description: as §1

Danio rerio embryo [11] = test: EC20 Curvature_Increase; higher = less potent
Description: as §1

Danio rerio embryo [12] = test: EC10 Bladder size_Decrease; higher = less potent; details: exposure time: 4 dpf
Description: as §1

Danio rerio embryo [13] = test: EC20 Otolith-eye distance_Decrease; higher = less potent; details: exposure time: 4 dpf
Description: as §1

Danio rerio embryo [14] = test: EC10 Yolk sac size_Increase; higher = less potent; details: exposure time: 4 dpf
Description: as §1

Danio rerio embryo [15] = details: exposure time: 4 dpf
Description: as §1

Danio rerio embryo [16] = test: EC50 Otolith-eye distance_Decrease; details: exposure time: 4 dpf
Description: as §1

Danio rerio embryo [17] = test: EC20 Pericard size_Increase; higher = less potent
Description: as §1

Danio rerio embryo [18] = test: EC10 Body length_Decrease; higher = less potent
Description: as §1

Danio rerio embryo [19] = test: EC20 Body length_Decrease; higher = less potent
Description: as §1

Danio rerio embryo [20] = test: EC20 LMR dark; higher = less potent; details: exposure time: 4 dpf
Description: as §1

Danio rerio embryo [21] = test: EC50 Pericard size_Increase
Description: as §1

Danio rerio embryo [22] = test: EC10 Eye-jaw distance_Decrease; higher = less potent; details: exposure time: 4 dpf
Description: as §1

Danio rerio embryo [23] = test: spontaneous tail coiling frequency (coils/min/embryo); higher = more spontaneous movement; details: 25 hpf
Description: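 Spontaneous tail coilings of zebrafish embryos exposed from 2 hpf were recorded at 24-25 hpf in 1-min videos and detected by a KNIME workflow from grey-value variance. Betamethasone was tested as the dipropionate, diflorasone as the diacetate.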

Danio rerio embryo [24] = test: EC20 Yolk sac size_Increase; higher = less potent; details: exposure time: 4 dpf
Description: as §1

Danio rerio embryo [25] = test: EC10 LMR dark; higher = less potent; details: exposure time: 4 dpf
Description: as §1

Danio rerio embryo [26] = test: EC20 Bladder size_Decrease; higher = less potent; details: exposure time: 4 dpf
Description: as §1

Danio rerio embryo [27] = test: EC10 Any effect; higher = less potent
Description: as §1

Danio rerio embryo [28] = test: EC50 Bladder size_Decrease; details: exposure time: 4 dpf
Description: as §1

Danio rerio embryo [29] = test: EC20 Any effect; higher = less potent
Description: as §1

Cc1ccc(-c2cc(C(F)(F)F)nn2-c2ccc(S(N)(=O)=O)cc2)cc1 [Celecoxib]
Details	EC10 Bladder size Decrease [µM]	EC10 Eye-jaw distance Decrease [µM]	EC10 LMR dark [µM]	EC10 Otolith-eye distance Decrease [µM]	EC10 Yolk sac size Increase [µM]	EC20 Bladder size Decrease [µM]	EC20 Eye size Decrease [µM]	EC20 Eye-jaw distance Decrease [µM]	EC20 LMR dark [µM]	EC20 Otolith-eye distance Decrease [µM]	EC20 Yolk sac size Increase [µM]	EC50 Bladder size Decrease [µM]	EC50 Eye-jaw distance Decrease [µM]	EC50 LMR dark [µM]	EC50 Otolith-eye distance Decrease [µM]	EC50 Yolk sac size Increase [µM]
Danio rerio embryo [1]	–	–	–	–	–	–	–	–	–	–	–	–	–	–	–	17.6
Danio rerio embryo [2]	–	–	–	14.6	–	–	–	–	–	–	–	–	–	–	–	–
Danio rerio embryo [3]	–	–	–	–	–	–	10.5	–	–	–	–	–	–	–	–	–
Danio rerio embryo [8]	–	–	–	–	–	–	–	11.8	–	–	–	–	–	–	–	–
Danio rerio embryo [10]	–	–	–	–	–	–	–	–	–	–	–	–	15.9	–	–	–
Danio rerio embryo [12]	7.91	–	–	–	–	–	–	–	–	–	–	–	–	–	–	–
Danio rerio embryo [13]	–	–	–	–	–	–	–	–	–	16.8	–	–	–	–	–	–
Danio rerio embryo [14]	–	–	–	–	8.88	–	–	–	–	–	–	–	–	–	–	–
Danio rerio embryo [15]	–	–	–	–	–	–	–	–	–	–	–	–	–	13	–	–
Danio rerio embryo [16]	–	–	–	–	–	–	–	–	–	–	–	–	–	–	21.4	–
Danio rerio embryo [20]	–	–	–	–	–	–	–	–	9.94	–	–	–	–	–	–	–
Danio rerio embryo [22]	–	9.89	–	–	–	–	–	–	–	–	–	–	–	–	–	–
Danio rerio embryo [24]	–	–	–	–	–	–	–	–	–	–	11.4	–	–	–	–	–
Danio rerio embryo [25]	–	–	8.51	–	–	–	–	–	–	–	–	–	–	–	–	–
Danio rerio embryo [26]	–	–	–	–	–	8.23	–	–	–	–	–	–	–	–	–	–
Danio rerio embryo [28]	–	–	–	–	–	–	–	–	–	–	–	8.8	–	–	–	–

Details	EC10 Any effect [µM]	EC10 Body length Decrease [µM]	EC10 Curvature Increase [µM]	EC10 Pericard size Increase [µM]	EC20 Any effect [µM]	EC20 Body length Decrease [µM]	EC20 Curvature Increase [µM]	EC20 Pericard size Increase [µM]	EC50 Any effect [µM]	EC50 Body length Decrease [µM]	EC50 Curvature Increase [µM]	EC50 Pericard size Increase [µM]	EC50 STC bell shape [µM]	spontaneous tail coiling frequency
Danio rerio embryo [4], exposure time: 2 dpf	–	–	–	–	–	–	–	–	–	25.2	–	–	–	–
Danio rerio embryo [4], exposure time: 4 dpf	–	–	–	–	–	–	–	–	–	13.6	–	–	–	–
Danio rerio embryo [5], exposure time: 2 dpf	–	–	29.8	–	–	–	–	–	–	–	–	–	–	–
Danio rerio embryo [5], exposure time: 4 dpf	–	–	12.3	–	–	–	–	–	–	–	–	–	–	–
Danio rerio embryo [6], exposure time: 2 dpf	–	–	–	–	–	–	–	–	–	–	31.6	–	–	–
Danio rerio embryo [6], exposure time: 4 dpf	–	–	–	–	–	–	–	–	–	–	21.1	–	–	–
Danio rerio embryo [7], exposure time: 2 dpf	–	–	–	4.26	–	–	–	–	–	–	–	–	–	–
Danio rerio embryo [7], exposure time: 4 dpf	–	–	–	7.87	–	–	–	–	–	–	–	–	–	–
Danio rerio embryo [9], exposure time: 2 dpf	–	–	–	–	–	–	–	–	13.9	–	–	–	–	–
Danio rerio embryo [9], exposure time: 4 dpf	–	–	–	–	–	–	–	–	8.13	–	–	–	–	–
Danio rerio embryo [9], exposure time: 25 h	–	–	–	–	–	–	–	–	–	–	–	–	32.2	–
Danio rerio embryo [11], exposure time: 2 dpf	–	–	–	–	–	–	30.5	–	–	–	–	–	–	–
Danio rerio embryo [11], exposure time: 4 dpf	–	–	–	–	–	–	15	–	–	–	–	–	–	–
Danio rerio embryo [17], exposure time: 2 dpf	–	–	–	–	–	–	–	6.48	–	–	–	–	–	–
Danio rerio embryo [17], exposure time: 4 dpf	–	–	–	–	–	–	–	9.76	–	–	–	–	–	–
Danio rerio embryo [18], exposure time: 2 dpf	–	20.1	–	–	–	–	–	–	–	–	–	–	–	–
Danio rerio embryo [18], exposure time: 4 dpf	–	8.57	–	–	–	–	–	–	–	–	–	–	–	–
Danio rerio embryo [19], exposure time: 2 dpf	–	–	–	–	–	21.9	–	–	–	–	–	–	–	–
Danio rerio embryo [19], exposure time: 4 dpf	–	–	–	–	–	10.2	–	–	–	–	–	–	–	–
Danio rerio embryo [21], exposure time: 2 dpf	–	–	–	–	–	–	–	–	–	–	–	13.3	–	–
Danio rerio embryo [21], exposure time: 4 dpf	–	–	–	–	–	–	–	–	–	–	–	14.1	–	–
Danio rerio embryo [23], 5 µM	–	–	–	–	–	–	–	–	–	–	–	–	–	2.65
Danio rerio embryo [23], 8.3 µM	–	–	–	–	–	–	–	–	–	–	–	–	–	2.21
Danio rerio embryo [23], 10 µM	–	–	–	–	–	–	–	–	–	–	–	–	–	2.87
Danio rerio embryo [23], 16.5 µM	–	–	–	–	–	–	–	–	–	–	–	–	–	2.73
Danio rerio embryo [23], 17.5 µM	–	–	–	–	–	–	–	–	–	–	–	–	–	1.93
Danio rerio embryo [23], 24.8 µM	–	–	–	–	–	–	–	–	–	–	–	–	–	2.06
Danio rerio embryo [23], 25 µM	–	–	–	–	–	–	–	–	–	–	–	–	–	2.15
Danio rerio embryo [23], 32.5 µM	–	–	–	–	–	–	–	–	–	–	–	–	–	1.08
Danio rerio embryo [23], 33 µM	–	–	–	–	–	–	–	–	–	–	–	–	–	1.78
Danio rerio embryo [23], 40 µM	–	–	–	–	–	–	–	–	–	–	–	–	–	0.12
Danio rerio embryo [27], exposure time: 2 dpf	4.74	–	–	–	–	–	–	–	–	–	–	–	–	–
Danio rerio embryo [27], exposure time: 4 dpf	1.62	–	–	–	–	–	–	–	–	–	–	–	–	–
Danio rerio embryo [29], exposure time: 2 dpf	–	–	–	–	7.05	–	–	–	–	–	–	–	–	–
Danio rerio embryo [29], exposure time: 4 dpf	–	–	–	–	2.94	–	–	–	–	–	–	–	–	–
